Data on 2 compounds can be found in paper PMC10118193, “Biochemical characterization of a GDP-mannose transporter from Chaetomium thermophilum” (PLOS ONE, 2023).

The target of test [1] is T1, Chymotrypsin-cleaved CtVrg4 (cCtVrg4) (Thermochaetoides thermophila, UniProt G0S534).
T1 construct: gene CTHT_0023930; full-length His-tagged protein cut by chymotrypsin (50:1, 2 h, 18 °C); crystals of cleaved protein ~25 kDa
Put plainly: exchange of internal GDP-mannose with external [3H]GMP in proteoliposomes. Format: biochemical. The conditions noted are these: yeast polar lipid proteoliposomes; internal GDP-mannose 1-1000 μM; 0.384 μM external [3H]GMP; room temperature, 10 min.

In test [2] the target is T2, CtVrg4 (Vrg4 from Chaetomium thermophilum) (Thermochaetoides thermophila, UniProt G0S534, Y310F).
T2 construct: gene CTHT_0023930; full length, 385 residues, N-terminal 12-His tag, about 37 kDa, expressed in S. cerevisiae FGY217, purified in DDM
T2 sequence (G0S534 entry or part of it Y310F): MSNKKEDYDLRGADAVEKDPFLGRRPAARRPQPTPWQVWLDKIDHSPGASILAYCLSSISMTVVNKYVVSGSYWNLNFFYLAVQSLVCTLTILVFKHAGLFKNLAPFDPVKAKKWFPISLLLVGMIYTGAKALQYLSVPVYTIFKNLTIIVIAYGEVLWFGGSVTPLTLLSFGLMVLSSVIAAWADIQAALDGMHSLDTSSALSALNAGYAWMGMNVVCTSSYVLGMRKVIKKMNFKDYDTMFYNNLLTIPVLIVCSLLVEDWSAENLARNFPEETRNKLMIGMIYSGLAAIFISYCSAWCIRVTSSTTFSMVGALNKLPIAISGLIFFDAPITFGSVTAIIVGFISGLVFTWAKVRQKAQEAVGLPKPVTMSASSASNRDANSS
The experiment in a line: competition of [3H]GMP uptake into proteoliposomes. In kind it is biochemical.

Test [3] deals with T3, CtVrg4 (Vrg4 from Chaetomium thermophilum) (Thermochaetoides thermophila, UniProt G0S534).
T3 construct: gene CTHT_0023930; full length, 385 residues, N-terminal 12-His tag, about 37 kDa, expressed in S. cerevisiae FGY217, purified in DDM
T3 sequence (G0S534 entry or part of it): as the sequence (G0S534 entry or part of it Y310F) above, with F310Y counted along it
Put plainly: competition of [3H]GMP uptake into proteoliposomes. In kind it is biochemical.

The target of test [4] is T4, CtVrg4Δ31 (Thermochaetoides thermophila, UniProt G0S534).
T4 construct: gene CTHT_0023930; C-terminal truncation lacking the last 31 residues (Golgi retrieval signal), residues 1-354, N-terminal 12-His tag, expressed in S. cerevisiae FGY217, purified in DDM
T4 sequence (G0S534 entry or part of it, stated change not applied): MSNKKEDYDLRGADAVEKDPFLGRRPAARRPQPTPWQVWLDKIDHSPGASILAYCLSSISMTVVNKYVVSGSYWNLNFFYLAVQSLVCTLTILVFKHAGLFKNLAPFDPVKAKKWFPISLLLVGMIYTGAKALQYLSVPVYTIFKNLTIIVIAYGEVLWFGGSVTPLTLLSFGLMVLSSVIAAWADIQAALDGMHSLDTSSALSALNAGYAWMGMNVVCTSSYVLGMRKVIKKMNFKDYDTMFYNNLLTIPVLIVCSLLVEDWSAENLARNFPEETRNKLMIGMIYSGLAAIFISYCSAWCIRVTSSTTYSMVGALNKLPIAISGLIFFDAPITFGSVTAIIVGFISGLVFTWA
The experiment in a line: thermal shift titration (Tycho NT.[…]). In kind it is binding.

The target in test [5] is T2, CtVrg4 (Vrg4 from Chaetomium thermophilum). The experiment in a line: thermal shift titration (Tycho NT.[…]). Format: binding.
The target of test [6] is T3, CtVrg4 (Vrg4 from Chaetomium thermophilum). The experiment in a line: thermal shift titration (Tycho NT.[…]). Format: binding.
Test [7] deals with T4, CtVrg4Δ31. Put plainly: competition of [3H]GMP uptake into proteoliposomes. Format: biochemical.

T1 sequence (G0S534 entry or part of it): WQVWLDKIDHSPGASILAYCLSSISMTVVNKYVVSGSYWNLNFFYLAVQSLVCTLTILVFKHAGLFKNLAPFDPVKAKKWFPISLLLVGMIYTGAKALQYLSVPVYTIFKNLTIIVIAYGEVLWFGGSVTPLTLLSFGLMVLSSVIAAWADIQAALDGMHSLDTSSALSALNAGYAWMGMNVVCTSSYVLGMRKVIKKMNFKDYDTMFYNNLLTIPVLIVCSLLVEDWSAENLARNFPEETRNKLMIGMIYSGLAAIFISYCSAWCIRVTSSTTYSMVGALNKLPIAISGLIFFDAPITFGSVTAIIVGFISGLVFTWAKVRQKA

Consider `Nc1nc2c(ncn2[C@@H]2O[C@H](COP(=O)(O)OP(=O)(O)O[C@H]3O[C@H](CO)[C@@H](O)[C@H](O)[C@@H]3O)[C@@H](O)[C@H]2O)c(=O)[nH]1` [GDP-mannose], for which the Km in test [1] is 32.1 µM. For the same compound, the IC50 in test [2] worked out at 47.1 µM; in test [3], 25.5 µM; in test [7], 48 µM. The dissociation constant Kd in test [4] was 58.5 µM; in test [5] it was 130 µM; in test [6] it was 74.3 µM.
On to `Nc1nc2c(ncn2[C@@H]2O[C@H](COP(=O)(O)O)[C@@H](O)[C@H]2O)c(=O)[nH]1` [GMP], for which the figures for the Kd in test [4], in test [5] and in test [6] were 63.2 µM, 139 µM and 143 µM, respectively.
